Measurements: paper PMC5789148, “Embelin Restores Carbapenem Efficacy against NDM-1-Positive Pathogens” (Frontiers in Microbiology, 2018)

Tests used:
Format in all cases: biochemical
[1] = biological target: T1, NDM-1 (New Delhi metallo-β-lactamase-1) (Klebsiella pneumoniae, UniProt C7C422); experiment: single-concentration ([…]) meropenem hydrolysis screen with purified NDM-1; conditions: read-out: % inhibition at 20 μM
T1 construct: gene blaNDM-1

IMP-1 = IMP-1 (Serratia marcescens, UniProt P52699); experiment: meropenem hydrolysis inhibition assay
Sequence of IMP-1 (P52699 19-246 limits assumed): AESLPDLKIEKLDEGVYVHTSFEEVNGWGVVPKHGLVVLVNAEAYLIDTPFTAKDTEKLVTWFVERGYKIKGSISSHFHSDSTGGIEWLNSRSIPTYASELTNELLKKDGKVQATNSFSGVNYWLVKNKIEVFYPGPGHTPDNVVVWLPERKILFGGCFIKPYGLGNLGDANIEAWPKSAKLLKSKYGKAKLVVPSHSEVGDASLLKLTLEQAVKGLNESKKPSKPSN

VIM-1 = VIM-1 (Pseudomonas aeruginosa, UniProt A0A0F7KYQ8); experiment: meropenem hydrolysis inhibition assay
[2] = biological target: T1, NDM-1 (New Delhi metallo-β-lactamase-1); experiment: meropenem hydrolysis inhibition with purified NDM-1, […] nm (IC50 […])

T1 sequence (C7C422 29-270 limits assumed): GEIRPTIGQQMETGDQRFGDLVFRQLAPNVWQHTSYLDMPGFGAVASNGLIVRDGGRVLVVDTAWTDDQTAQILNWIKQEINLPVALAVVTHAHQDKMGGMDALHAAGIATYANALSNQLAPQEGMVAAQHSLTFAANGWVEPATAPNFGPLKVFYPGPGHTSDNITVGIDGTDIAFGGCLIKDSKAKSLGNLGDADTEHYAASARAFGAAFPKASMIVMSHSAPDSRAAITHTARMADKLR

SMILES	inhibition at 20 µM [1]	IC50 (IMP-1)	IC50 (VIM-1)	Ki [2]
Oc1ccc(/C=C/c2cc(O)cc(O)c2)cc1 [resveratrol]	> 20%			
CCCCCCCCCCCC1=C(O)C(=O)C=C(O)C1=O [embelin]		~100 µM	~200 µM	0.19 ± 0.02 µM
COc1cc(/C=C/C(=O)CC(=O)/C=C/c2ccc(O)c(OC)c2)ccc1O [curcumine]	> 20%			
